According to patent US20090155387A1, “STABLE PHARMACEUTICAL COMPOSITION COMPRISING BETA-LACTAM ANTIBIOTIC AND ION-CHELATING AGENT” (priority 2006, published 2009):

Assay: Amounts of β-lactam antibiotic, β-lactamase inhibitor and aminoglycoside antibiotic in solution over time (reverse-phase LC/HPLC)
Type: physicochemical
Method in brief: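 β-Lactam antibiotic and β-lactamase inhibitor quantified by C18 reverse-phase LC with UV-VIS detection; aminoglycoside by reverse-phase HPLC with evaporative light-scattering detection. Peak areas taken relative to an external standard, with each component at each time point given as a percentage of its initial amount.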

CC1(C)[C@H](C(=O)O)N2C(=O)C[C@H]2S1(=O)=O [Sulbactam sodium]
amount (percentage of initial amount) (in Example 4 solution (no EDTA), pH 6.75, room temperature, 0 h): 101.4% | amount (percentage of initial amount) (in Example 4 solution (no EDTA), pH 6.75, room temperature, 1 h): 101.4% | amount (percentage of initial amount) (in Example 4 solution (no EDTA), pH 6.75, room temperature, 2 h): 101.5% | amount (percentage of initial amount) (in Example 4 solution (no EDTA), pH 6.75, room temperature, 4 h): 109.7% | amount (percentage of initial amount) (in Example 4 solution (no EDTA), pH 6.75, room temperature, 6 h): 103.2% | amount (percentage of initial amount) (in Example 5 solution, pH 6.75, room temperature, 0 h): 101.4% | amount (percentage of initial amount) (in Example 5 solution, pH 6.75, room temperature, 1 h): 101.4% | amount (percentage of initial amount) (in Example 5 solution, pH 6.75, room temperature, 2 h): 101.5% | amount (percentage of initial amount) (in Example 5 solution, pH 6.75, room temperature, 4 h): 109.7% | amount (percentage of initial amount) (in Example 5 solution, pH 6.75, room temperature, 6 h): 103.2% | amount (percentage of initial amount) (in Example 6 solution, pH 6.5, room temperature, 0 h): 99.62% | amount (percentage of initial amount) (in Example 6 solution, pH 6.5, room temperature, 1 h): 100.4% | amount (percentage of initial amount) (in Example 6 solution, pH 6.5, room temperature, 2 h): 100.2% | amount (percentage of initial amount) (in Example 6 solution, pH 6.5, room temperature, 4 h): 100.2% | amount (percentage of initial amount) (in Example 7 solution, pH 6.75, room temperature, 0 h): 96.84% | amount (percentage of initial amount) (in Example 7 solution, pH 6.75, room temperature, 1 h): 94.43% | amount (percentage of initial amount) (in Example 7 solution, pH 6.75, room temperature, 2 h): 93.35% | amount (percentage of initial amount) (in Example 7 solution, pH 6.75, room temperature, 4 h): 93.23% | amount (percentage of initial amount) (in Example 7 solution, pH 6.75, room temperature, 6 h): 92.13% | amount (percentage of initial amount) (in Example 7 solution, pH 6.75, room temperature, 8 h): 93.38% | amount (percentage of initial amount) (in Example 12 solution (no aminoglycoside) from freeze-dried powder stored 7 days at 0° C., redissolved, 0 h): 98.5% | amount (percentage of initial amount) (in Example 12 solution (no aminoglycoside) from freeze-dried powder stored 7 days at 0° C., redissolved, 1 h): 98.7% | amount (percentage of initial amount) (in Example 12 solution (no aminoglycoside) from freeze-dried powder stored 7 days at 0° C., redissolved, 2 h): 98.2% | amount (percentage of initial amount) (in Example 12 solution (no aminoglycoside) from freeze-dried powder stored 7 days at 0° C., redissolved, 4 h): 95.6% | amount (percentage of initial amount) (in Example 12 solution (no aminoglycoside) from freeze-dried powder stored 7 days at 0° C., redissolved, 6 h): 94.0% | amount (percentage of initial amount) (in Example 12 solution (no aminoglycoside) from freeze-dried powder stored 7 days at 0° C., redissolved, 8 h): 96.1% | amount (percentage of initial amount) (in Example 14 solution, pH 6.5, room temperature, 0 h): 92.44% | amount (percentage of initial amount) (in Example 14 solution, pH 6.5, room temperature, 1 h): 91.27% | amount (percentage of initial amount) (in Example 14 solution, pH 6.5, room temperature, 2 h): 90.78% | amount (percentage of initial amount) (in Example 14 solution, pH 6.5, room temperature, 4 h): 88.38% | amount (percentage of initial amount) (in Example 14 solution, pH 6.5, room temperature, 6 h): 86.86% | amount (percentage of initial amount) (in Example 15 solution, pH 6.5, room temperature, 0 h): 99.50% | amount (percentage of initial amount) (in Example 15 solution, pH 6.5, room temperature, 1 h): 96.28% | amount (percentage of initial amount) (in Example 15 solution, pH 6.5, room temperature, 2 h): 102.5% | amount (percentage of initial amount) (in Example 15 solution, pH 6.5, room temperature, 4 h): 95.78% | amount (percentage of initial amount) (in Example 15 solution, pH 6.5, room temperature, 6 h): 70.74% | amount (percentage of initial amount) (in Example 17 solution, pH 6.5, room temperature, 0 h): 114.3% | amount (percentage of initial amount) (in Example 17 solution, pH 6.5, room temperature, 1 h): 95.83% | amount (percentage of initial amount) (in Example 17 solution, pH 6.5, room temperature, 2 h): 93.75% | amount (percentage of initial amount) (in Example 17 solution, pH 6.5, room temperature, 4 h): 93.78% | amount (percentage of initial amount) (in Example 17 solution, pH 6.5, room temperature, 6 h): 95.65% | amount (percentage of initial amount) (in Example 17 solution, pH 6.5, room temperature, 8 h): 101.0% | amount (percentage of initial amount) (in Example 18 solution (2.5% fructose), pH 6.5, room temperature, 0 h): 98.07% | amount (percentage of initial amount) (in Example 18 solution (2.5% fructose), pH 6.5, room temperature, 1 h): 98.13% | amount (percentage of initial amount) (in Example 18 solution (2.5% fructose), pH 6.5, room temperature, 2 h): 72.96% | amount (percentage of initial amount) (in Example 18 solution (2.5% fructose), pH 6.5, room temperature, 4 h): 95.16% | amount (percentage of initial amount) (in Example 18 solution (2.5% fructose), pH 6.5, room temperature, 6 h): 99.65% | amount (percentage of initial amount) (in Example 18 solution (2.5% fructose), pH 6.5, room temperature, 8 h): 104.9% | amount (percentage of initial amount) (in Example 19 solution, pH 6.75, room temperature, 0 h): 108.8% | amount (percentage of initial amount) (in Example 19 solution, pH 6.75, room temperature, 1 h): 109.6% | amount (percentage of initial amount) (in Example 19 solution, pH 6.75, room temperature, 2 h): 111.7% | amount (percentage of initial amount) (in Example 19 solution, pH 6.75, room temperature, 4 h): 115.9% | amount (percentage of initial amount) (in Example 19 solution, pH 6.75, room temperature, 6 h): 120.7% | amount (percentage of initial amount) (in Example 19 solution, pH 6.75, room temperature, 8 h): 125.6% | amount (percentage of initial amount) (in Example 20 solution (no EDTA), pH 6.75, room temperature, 0 h): 105.6% | amount (percentage of initial amount) (in Example 20 solution (no EDTA), pH 6.75, room temperature, 1 h): 112.2% | amount (percentage of initial amount) (in Example 20 solution (no EDTA), pH 6.75, room temperature, 2 h): 112.6% | amount (percentage of initial amount) (in Example 20 solution (no EDTA), pH 6.75, room temperature, 4 h): 118.5% | amount (percentage of initial amount) (in Example 20 solution (no EDTA), pH 6.75, room temperature, 6 h): 123.3% | amount (percentage of initial amount) (in Example 20 solution (no EDTA), pH 6.75, room temperature, 8 h): 127.1% | amount (percentage of initial amount) (in Example 22 solution (2.5% fructose), pH 6.0, room temperature, 0 h): 101.4% | amount (percentage of initial amount) (in Example 22 solution (2.5% fructose), pH 6.0, room temperature, 1 h): 107.6% | amount (percentage of initial amount) (in Example 22 solution (2.5% fructose), pH 6.0, room temperature, 2 h): 101.3% | amount (percentage of initial amount) (in Example 22 solution (2.5% fructose), pH 6.0, room temperature, 4 h): 104.4% | amount (percentage of initial amount) (in Example 22 solution (2.5% fructose), pH 6.0, room temperature, 6 h): 104.4% | amount (percentage of initial amount) (in Example 22 solution (2.5% fructose), pH 6.0, room temperature, 8 h): 91.39% | amount (percentage of initial amount) (in Example 24 solution, pH 6.75, room temperature, 0 h): 90.06% | amount (percentage of initial amount) (in Example 24 solution, pH 6.75, room temperature, 1 h): 94.26% | amount (percentage of initial amount) (in Example 24 solution, pH 6.75, room temperature, 2 h): 100.5% | amount (percentage of initial amount) (in Example 24 solution, pH 6.75, room temperature, 4 h): 89.94% | amount (percentage of initial amount) (in Example 24 solution, pH 6.75, room temperature, 6 h): 94.26% | amount (percentage of initial amount) (in Example 24 solution, pH 6.75, room temperature, 8 h): 105.0% | amount (percentage of initial amount) (in Example 25 solution, pH 6.75, room temperature, 0 h): 99.32% | amount (percentage of initial amount) (in Example 25 solution, pH 6.75, room temperature, 1 h): 107.5% | amount (percentage of initial amount) (in Example 25 solution, pH 6.75, room temperature, 2 h): 97.91% | amount (percentage of initial amount) (in Example 25 solution, pH 6.75, room temperature, 4 h): 83.79% | amount (percentage of initial amount) (in Example 25 solution, pH 6.75, room temperature, 6 h): 94.52% | amount (percentage of initial amount) (in Example 25 solution, pH 6.75, room temperature, 8 h): 105.5%
